Where two headings read alike, the source gives them in different places.
Legend:
[1] = system: pepper mottle virus (PepMoV); set-up: species or system Capsicum anuum L.; details: in vivo
tobacco mosaic virus = assay: Half leaf method, anti-viral activity against tobacco mosaic virus (local lesion count); assay type: in vivo; details: concentration of 5 ppm or above; Nicotiana tabacum cv. Xanthi nc half leaf; 3 days after inoculation
Description: A half leaf method was performed to determine an anti-viral activity against tobacco mosaic virus, which was provided from the plant virus genebank (PVGB), Seoul women's university, of the compounds which was determined to have the anti-viral activity against the pepper mottle virus in Example 3. The half leaf method utilizes features of producing black spots due to local lesions around the infected part by tobacco mosaic virus in Nicotiana tabacum cv. Xanthi nc which is a local lesion host. Top 3 leaves and 4 leaves of 7-8 normal leaves of the local lesion host were taken and carborundum was evenly sprayed throughout the leaves. A compound 1 (Trichodermin) sample at test concentrations dissolved in DMSO and the tobacco mosaic virus solution were mixed. Right half leaf of the leaf of the Nicotiana tabacum cv. Xanthi nc was inoculated with this mixture and the other left half leaf was inoculated with tobacco mosaic virus solution (control) using cotton swabs. After petiole of the leaf of the Nicotiana tabacum cv. […] After 3 days of inoculation, the number of local lesions was counted and 100-400 of lesions of […] control half leaf was only applied. Activity rate using the number of lesions was calculated by the following equation. […]

[2] = system: pepper mottle virus (PepMoV); set-up: species or system Nicotiana benthamiana; details: in vivo

CC(=O)O[C@@H]1C[C@H]2O[C@@H]3C=C(C)CC[C@]3(C)[C@]1(C)[C@]21CO1 [Trichodermin]
spreading rate of the pepper mottle virus (green fluorescent protein in upper leaves under UV, viral RNA and coat protein) [1]: inhibits spreading rate of the pepper mottle virus
anti-viral activity against the tobacco mosaic virus (control rate from number of local lesions) (tobacco mosaic virus): ≥ 97%
spreading rate of the pepper mottle virus (green fluorescent protein in upper leaves under UV, viral RNA and coat protein) [2]: inhibits spreading rate of the pepper mottle virus
